Laboratory results taken from patent publication US20250277734A1, “M-MIC: Microfluidic Microbiologically Influenced Corrosion Model” (The Texas A&M University System, priority 2017, published 2025).

Tested on: Shewanella oneidensis biofilms
Test: Biocide efficacy on S. oneidensis biofilms grown on carbon steel in single-electrode M-MIC (live/dead staining, confocal microscopy)
Type: cell-based
Details: for increase in the percentage of dead cells: 400 ppm biocide added to 12 hour biofilm on carbon steel, after 4 hours SYTO9/propidium iodide staining, 30° C.
Procedure: Biofilms of Shewanella oneidensis (e.g., S. oneidensis, an iron-reducing bacterium commonly found in MIC sites) were grown on carbon steel in the single-metal system, such as M-MIC 200 as depicted in FIG. 2. In this Example 2, the single electrode comprised steel, the substrate 112 comprised glass, and the structure 104 comprised PDMS. Biofilms were developed in the system at 30° C. with a constant flow of Luria-Bertani growth medium which contained 10 g/l tryptone, 5 g/l yeast extract and 15 g/l sodium chloride being introduced at a flow rate of 0.25 mL/h. After 12 hours, flow of growth medium was stopped and 400 ppm of two common oilfield biocides, glutaraldehyde and tetrakis-hydroxymethyl-phosphonium sulfate (THPS), were added to the biofilms. After 4 hours, live and dead cells in the biofilms were stained using SYTO9 (green) and propidium iodide (red), respectively. Stained biofilms were analyzed for the percentage of live and dead cells to determine biocide efficiency. […] In addition to determining the right biocide, similar studies can be conducted with different biocide concentrations to also determine the appropriate biocide dosage.

| Compound | increase in the percentage of dead cells [fold] | relative biocide effectiveness against S. oneidensis biofilms (400 ppm, 4 hours, under the conditions tested) |
| --- | --- | --- |
| O=CCCCC=O [glutaraldehyde] | 2.1 |  |
| tetrakis-hydroxymethyl-phosphonium sulfate [THPS] | 3.1 | more effective than glutaraldehyde |
